ChEMBL document CHEMBL1155119, “Identification of novel inhibitors of methionyl-tRNA synthetase (MetRS) by virtual screening” (Bioorg Med Chem Lett, 2008)
pIC50: −log10 of the molar value.

Columns and labels:
[1] = Inhibition of Staphylococcus aureus MetRS assessed as decrease in […] incorporation by SPA
Staphylococcus aureus [2] = experiment: Inhibition of Staphylococcus aureus MetRS assessed as decrease in […] incorporation at 100 uM by SPA
Staphylococcus aureus [3] = experiment: Inhibition of Staphylococcus aureus MetRS assessed as decrease in […] incorporation at 40 uM by SPA

## O=C(NCc1nc2ccccc2[nH]1)[C@@H]1CC(O)CN1Cc1ccc(Cl)cc1Cl (some centres not stated)
[1]
  pIC50: 6.68

## O=C(Cn1nnc(-c2ccccc2)n1)N/N=C/c1ccc(O)cc1O
Staphylococcus aureus [2]
  inhibition: 45%

## O=C(Nc1ccccc1O)c1cc(C(=O)Nc2ccccc2O)cc(N2C(=O)c3ccccc3C2=O)c1
Staphylococcus aureus [2]
  inhibition: 92%
[1]
  pIC50: 4.94

## O=C(Nc1cccc(Cl)c1)Nc1sc2c(c1-c1nc3ccccc3s1)CCCC2
Staphylococcus aureus [2]
  inhibition: 80%
[1]
  pIC50: 5.20

## O=C(CNC(=O)c1ccc(Cl)cc1)N/N=C/c1c(O)ccc2ccccc12
Staphylococcus aureus [2]
  inhibition: 80%
[1]
  pIC50: 4.58

## O=c1cc(NCCCNC2CCOc3c(Br)cc(Br)cc32)[nH]c2ccccc12 (configuration not stated)
[1]
  pIC50: 8.10

## O=C(N/N=C/c1ccc(O)cc1O)c1cc(-c2ccccc2)nc2ccccc12
Staphylococcus aureus [2]
  inhibition: 87%
[1]
  pIC50: 4.33

## NC(=O)[C@H](Cc1ccc(O)cc1)NC(=O)[C@@H]1CCN1/C=C1\N=C(c2ccc(Cl)cc2Cl)OC1=O
[1]
  pIC50: 7.15

## O=C(Nc1ccccc1C(=O)N/N=C/c1ccccc1O)c1ccc(Cl)cc1
Staphylococcus aureus [2]
  inhibition: 77%
[1]
  pIC50: 4.63

## O=C(/N=N/c1nc(Nc2ccccc2)nc(N2CCOCC2)n1)Nc1ccc(Cl)cc1
Staphylococcus aureus [2]
  inhibition: 81%
Staphylococcus aureus [3]
  inhibition: 34%

## O=C(Nc1cc(Cl)ccc1O)c1cnn2c1NC(c1ccc(Br)cc1)CC2C(F)(F)F (configuration not stated)
Staphylococcus aureus [2]
  inhibition: 47%

## Nc1nn(CCO)c2cc(-c3ccc(Cl)cc3Cl)ccc12
[1]
  pIC50: 6.24

## O=C(NC(C(=O)N/N=C/c1ccccc1O)c1n[nH]c(=O)c2ccccc12)c1ccccc1 (configuration not stated)
Staphylococcus aureus [2]
  inhibition: 52%
[1]
  pIC50: 4.45

## O=C(O)c1ccc(OCc2ccc(Cl)cc2Cl)c(OCc2nc3ccccc3[nH]2)c1
[1]
  pIC50: 7.70

## O=C(Nc1cccc(O)c1)c1cnn2c1NC(c1ccc(Br)cc1)CC2C(F)(F)F (configuration not stated)
Staphylococcus aureus [2]
  inhibition: 55%
[1]
  pIC50: 5.08

## O=C(CSc1ccc2ccccc2n1)N/N=C/c1ccccc1O
Staphylococcus aureus [2]
  inhibition: 47%

## S=C(Nc1ccccc1)Nc1nc2ccccc2n1CCOc1ccc(Cl)cc1
Staphylococcus aureus [2]
  inhibition: 67%
[1]
  pIC50: 4.06

## O=C(Nc1cccc(O)c1)c1cnn2c1NC(c1cccs1)CC2C(F)(F)F (configuration not stated)
Staphylococcus aureus [2]
  inhibition: 83%
[1]
  pIC50: 5.24

## O=C(CSc1nc2ccccc2n1Cc1ccccc1)N/N=C/c1ccccc1O
Staphylococcus aureus [2]
  inhibition: 76%
Staphylococcus aureus [3]
  inhibition: 52%

## Clc1ccc(-c2ccc(-c3cc(-c4nnn[nH]4)nn3-c3cccnc3)cc2)c(Cl)c1
[1]
  pIC50: 6.89

## Cc1ccc(S(=O)(=O)N2CCC(C(=O)N/N=C/c3ccccc3O)CC2)cc1
Staphylococcus aureus [2]
  inhibition: 61%
[1]
  pIC50: 4.39

## COc1ccc(O)c(/C=N/NC(=O)CCC(=O)Nc2ccc(Br)cc2)c1
Staphylococcus aureus [2]
  inhibition: 72%
[1]
  pIC50: 4.38

## Cc1cc(Cl)ccc1NC(=O)CCC(=O)N/N=C/c1ccccc1O
Staphylococcus aureus [2]
  inhibition: 91%
[1]
  pIC50: 4.02

## O=C(CCCOc1ccc(Cl)cc1Cl)N/N=C/c1ccccc1O
Staphylococcus aureus [2]
  inhibition: 86%
[1]
  pIC50: 5.32

## COc1ccc(O)c(/C=N/NC(=O)CNC(=O)c2ccc(Cl)cc2)c1
Staphylococcus aureus [2]
  inhibition: 91%
Staphylococcus aureus [3]
  inhibition: 35%

## S=C(Nc1ccccc1)Nc1nc2ccccc2n1CCOc1ccccc1Cl
Staphylococcus aureus [2]
  inhibition: 66%
[1]
  pIC50: 4.60

## O=C(CSc1nc2ccccc2n1Cc1ccc(Cl)cc1)N/N=C/c1ccccc1O
Staphylococcus aureus [2]
  inhibition: 82%
[1]
  pIC50: 4.25

## Cc1cccc(C(=O)Nc2nnc(CC(=O)N/N=C/c3ccc(O)cc3O)s2)c1
Staphylococcus aureus [2]
  inhibition: 84%
[1]
  pIC50: 4.33
